Data published in patent publication US6194387A, “6-O-aklyl erythromycin B oxime” (Abbott Laboratories, priority 1999, dated 2001).
Read-outs that look alike come from different tables or passages of the source.

Assays:
MYCOBACTERIIUM SMEGMATIS = test: in vitro antibacterial activity, agar dilution MIC; format: cell-based; conditions: Table 2; ATCC 114; read-out: MIC
Method: (§1) 6-O-Methyl-9-oxime erythromycin B prepared in accordance with Examples 1 and 2 was assayed in vitro for anitbacterial activity as follows: Twelve petri dishes containing successive aqueous dilutions of the test compound mixed with 10 mL of sterilized Brain Heart Infusion (BHI) agar (Difco 0418-01-5) were prepared. Each plate was inoculated with 1:100 (or 1:10 for slow-growing strains, such as Micrococcus and Streptococcus) dilutions of up to 32 different micoorganisims, using a Steers replicatore block. The inoculated plates were incubated at 35-37° C. for 20 to 24 hours. In addition, a control plate, using BHI agar containing no test compound, was prepared and incubated at the beginning and end of each test.
(§2) An additional plate containing a compound having known susceptibility patterns for the organisms being tested and belonging to the same antibiotic class as the test compound was also prepared and incubated as further control, as well as to provide test-to-test comparability. Erythromycin A was used for this purpose.
(§3) After incubation, each disk was read. The minimum inhibitory concentration (MIC) was defined as the lowest concentration of drug yielding no growth, a slight haze, or sparsely isolated colonies on the inoculum spot as compared to the growth control.

STAPHYLOCOCCUS PYOGENES = test: in vitro antibacterial activity, agar dilution MIC; format: cell-based
Method: as §1, §2, §3

NOCARDIA ASTEROIDES = test: in vitro antibacterial activity, agar dilution MIC; format: cell-based; conditions: ATCC9970, Table 2, ATCC 9970, read-out: MIC
Method: as §1, §2, §3

STAPHYLOCOCCUS BOVIS = test: in vitro antibacterial activity, agar dilution MIC; format: cell-based; conditions: Table 2, A-5169, read-out: MIC
Method: as §1, §2, §3

PSEUDOMONAS CEPACIA = test: in vitro antibacterial activity, agar dilution MIC; format: cell-based; conditions: Burkholderia cepacia; Table 2; 2961; read-out: MIC
Method: as §1, §2, §3

[1] = test system: ACINETOBACTER CALCOACETICUS; test: in vitro antibacterial activity, agar dilution MIC; format: cell-based; conditions: Table 2, CMX 669, read-out: MIC
Method: as §1, §2, §3

[2] = test system: STAPHYLOCOCCUS PNEUMONIAE; test: in vitro antibacterial activity, agar dilution MIC; format: cell-based
Method: as §1, §2, §3

PROVIDENCIA STUART II = test: in vitro antibacterial activity, agar dilution MIC; format: cell-based; conditions: Table 2, CMX 640, read-out: MIC
Method: as §1, §2, §3

M[…] [3] = test: in vitro antibacterial activity, agar dilution MIC; format: cell-based; conditions: Micrococcus luteus, ATCC4698
Method: as §1, §2, §3

STAPHYLOCOCCUS AUREUS = test: in vitro antibacterial activity, agar dilution MIC; format: cell-based
Method: as §1, §2, §3

EN[…] [4] = test: in vitro antibacterial activity, agar dilution MIC; format: cell-based; conditions: Enterococcus faecium, ATCC8043
Method: as §1, §2, §3

[5] = test system: STAPHYLOCOCCUS EPIDERMIDIS; test: in vitro antibacterial activity, agar dilution MIC; format: cell-based; conditions: Table 2, 3519, read-out: MIC
Method: as §1, §2, §3

KLEBSIELLA PNEUMONIAE = test: in vitro antibacterial activity, agar dilution MIC; format: cell-based; conditions: ATCC8045, Table 2, ATCC 8045, read-out: MIC
Method: as §1, §2, §3

HAEMOPHILUS INFLUENZAE = test: in vitro antibacterial activity, agar dilution MIC; format: cell-based
Method: as §1, §2, §3

PSEUDOMONAS AERUGINOSA = test: in vitro antibacterial activity, agar dilution MIC; format: cell-based
Method: as §1, §2, §3

ESCHERICHIA COLI = test: microbe, parasite or virus in culture; format: cell-based
Method: as §1, §2, §3

M[…] [6] = test: in vitro antibacterial activity, agar dilution MIC; format: cell-based, Micrococcus pyogenes; conditions: Staphylococcus aureus, ATCC9341
Method: as §1, §2, §3

EN[…] [7] = test: in vitro antibacterial activity, agar dilution MIC; format: cell-based, Enterobacter aerogenes; conditions: Klebsiella aerogenes, ATCC13048
Method: as §1, §2, §3

micoorganisims = test: in vitro antibacterial activity, overall conclusion; format: cell-based
Method: as §1, §2, §3

CANDIDA ALBICANS = test: in vitro antimicrobial activity, agar dilution MIC; format: cell-based; conditions: Table 2, CCH 442, read-out: MIC
Method: as §1, §2, §3

CC[C@H]1OC(=O)[C@H](C)[C@@H](O[C@H]2C[C@@](C)(OC)[C@@H](O)[C@H](C)O2)[C@H](C)[C@@H](O[C@@H]2O[C@H](C)C[C@H](N(C)C)[C@H]2O)[C@](C)(OC)C[C@@H](C)C(=NO)[C@H](C)[C@@H](O)[C@H]1C [6-O-Methyl-9-oxime erythromycin B]
6.2 µg/mL: MIC (STAPHYLOCOCCUS PYOGENES; Table 2, PIU 2548, read-out: MIC) | MIC (STAPHYLOCOCCUS AUREUS; Table 2, A5177, read-out: MIC)
0.02 µg/mL: MIC (STAPHYLOCOCCUS PYOGENES; Table 2, EES61, read-out: MIC)
effective antibacterial agent: antibacterial activity (conclusion from Tables 2 and 3) (micoorganisims)
32 µg/mL: MIC (HAEMOPHILUS INFLUENZAE; ATCC19418, Table 3, ATCC 19418, read-out: MIC) | MIC (HAEMOPHILUS INFLUENZAE; Table 3, CMX 751, read-out: MIC)
> 128 µg/mL: MIC (STAPHYLOCOCCUS PYOGENES; Table 3, 930, read-out: MIC) | MIC ([2]; Table 3, 5728, read-out: MIC) | MIC ([2]; Table 3, 5737, read-out: MIC) | MIC ([2]; Table 3, 5979, read-out: MIC)
> 100 µg/mL: MIC (STAPHYLOCOCCUS PYOGENES; Table 2, 930) | MIC (PSEUDOMONAS CEPACIA) | MIC (PROVIDENCIA STUART II) | MIC (STAPHYLOCOCCUS AUREUS; Table 2, A-5278, read-out: MIC) | MIC (KLEBSIELLA PNEUMONIAE) | MIC (PSEUDOMONAS AERUGINOSA; Table 2, 5007, read-out: MIC) | MIC (PSEUDOMONAS AERUGINOSA; Table 2, DPHD-2862, read-out: MIC) | MIC (PSEUDOMONAS AERUGINOSA; Table 2, DPHD-5263, read-out: MIC) | MIC (ESCHERICHIA COLI; Table 2, DC-2) | MIC (EN[…] [7]) | MIC (CANDIDA ALBICANS)
0.1 µg/mL: MIC (NOCARDIA ASTEROIDES) | MIC (EN[…] [4])
1 µg/mL: MIC (HAEMOPHILUS INFLUENZAE; Table 3, GYR 1177, read-out: MIC)
0.39 µg/mL: MIC (MYCOBACTERIIUM SMEGMATIS) | MIC (STAPHYLOCOCCUS AUREUS; ATCC6538P, Table 2, ATCC 6538P, read-out: MIC) | MIC (STAPHYLOCOCCUS AUREUS; Table 2, NCTC10649M, read-out: MIC) | MIC [5]
16 µg/mL: MIC (STAPHYLOCOCCUS PYOGENES; Table 3, PIU 2548, read-out: MIC) | MIC ([2]; Table 3, 5649, read-out: MIC) | MIC ([2]; Table 3, 5654, read-out: MIC) | MIC (HAEMOPHILUS INFLUENZAE; ATCC10211, Table 3, ATCC 10211, read-out: MIC) | MIC (HAEMOPHILUS INFLUENZAE; Table 3, CMX 503B, read-out: MIC) | MIC (HAEMOPHILUS INFLUENZAE; Table 3, CMX 504, read-out: MIC) | MIC (HAEMOPHILUS INFLUENZAE; Table 3, CMX 519A, read-out: MIC) | MIC (HAEMOPHILUS INFLUENZAE; Table 3, CMX 566A, read-out: MIC) | MIC (HAEMOPHILUS INFLUENZAE; Table 3, CMX 588A, read-out: MIC) | MIC (HAEMOPHILUS INFLUENZAE; Table 3, CMX 747C, read-out: MIC) | MIC (HAEMOPHILUS INFLUENZAE; Table 3, GYR 1435, read-out: MIC) | MIC (HAEMOPHILUS INFLUENZAE; Table 3, SOL AMP R, read-out: MIC) | MIC (HAEMOPHILUS INFLUENZAE; Table 3, SPK AMP R, read-out: MIC)
0.78 µg/mL: MIC (M[…] [3]) | MIC (STAPHYLOCOCCUS AUREUS; Table 2, CMX 553, read-out: MIC) | MIC (STAPHYLOCOCCUS AUREUS; Table 2, CMX 642A, read-out: MIC) | MIC (ESCHERICHIA COLI; Table 2, SS)
8 µg/mL: MIC (HAEMOPHILUS INFLUENZAE; ATCC43095, Table 3, ATCC 43095, read-out: MIC) | MIC (HAEMOPHILUS INFLUENZAE; Table 3, CMX 632A, read-out: MIC)
0.03 µg/mL: MIC (STAPHYLOCOCCUS PYOGENES; Table 3, EES61, read-out: MIC) | MIC ([2]; Table 3, GYR 1171, read-out: MIC)
0.05 µg/mL: MIC (STAPHYLOCOCCUS BOVIS) | MIC (M[…] [6])
50 µg/mL: MIC [1] | MIC (ESCHERICHIA COLI; Table 2, JUHL)
1.56 µg/mL: MIC (PSEUDOMONAS AERUGINOSA; Table 2, K799/61, read-out: MIC)
100 µg/mL: MIC (ESCHERICHIA COLI; Table 2, H560) | MIC (ESCHERICHIA COLI; Table 2, KNK 437)
